Experimental data: patent US20060251574A1, “Cytotoxins and diagnostic imaging agents comprising hsp90 ligands” (priority 2002, published 2006)

Test system: HSP90
Protocol: Purified native HSP90 protein (Stressgen) or cell lysates prepared in lysis buffer (20 mM Hepes, pH 7.3, 1 mM EDTA, 5 mM MgCl2, 100 mM KCl) were incubated in the absence or presence of CF7 (17-AAG) or test compound for 15 min at 4° C. […] BioMag™ streptavidin magnetic beads were then added to the mixture, and the reaction was incubated by rotating for another 1 hr at 4° C. Tubes were placed on a magnetic rack, and the unbound supernatant removed. The magnetic beads were washed three times in lysis buffer, and the washes discarded. SDS-PAGE sample buffer was added to the beads and boiled for 5 min at 95° C. Samples were analyzed on 10% SDS protein gels (Novex), and then Western blots using anti-HSP90 monoclonal antibody (Stressgen SPA-830). The bands in the Western Blots were quantitated using the Bio-rad Fluor-S Imager, and the % inhibition of binding of CF7 or test compound calculated. The IC50 reported is the concentration of the compound needed to cause half-maximal inhibition of binding. For experiments that utilized shocked HSP90, the purified HSP90 native protein was incubated for 15 min at 90° C. For experiments that utilized bis-ANS treated HSP90, the purified HSP90 protein was incubated with bis-ANS (Molecular Probes) for 30 min at 37° C.

With 17-allylamino-geldanamycin [17-AAG] the “apparent binding affinity for HSP90, tumor cells versus normal cells or purified HSP90 (FIG. 4)” value (BT474 lysate vs fibroblasts, RPTEC, purified HSP90) was “higher apparent binding affinity for HSP90 from tumor cells (BT474) than normal cells (fibroblasts, RPTEC) or purified HSP90 alone” and the “apparent binding affinity for HSP90, high Her2 expressing cells versus normal cells, heat-shocked or bis-ANS treated HSP90 (FIG. 5)” value (SKOY-3, SKBR-3, N87 lysates) was “higher apparent binding affinity for HSP90 from the specific high Her2 expressing cells, SKOY-3, SKBR-3, and N87, than from normal cells, heat-shocked HSP90, or bis-ANS treated HSP90”.
